According to patent US20200087625A1, “METHODS FOR ISOLATING, EXPANDING AND ADMINISTERING CANCER SPECIFIC CD8+ T CELLS” (priority 2017, published 2020):

Columns and labels:
4T1 cells [1] = assay: Ex vivo tumor-specific cytotoxicity study; assay type: cell-based, BALB/c mice; details: effector to target cell ratio 16:1; vs vehicle
Procedure: FIGS. 23A-23G. Systemic administration of […] induces tumor-specific CD8^+ T cells. (A) Protocol of IV metastasis model. (B) BALB/c mice (n=B-15/group) were i.v. injected with 4T1 cells (2×10^4) on day 0.1V270 (2, 20, or 200 μg/injection) was i.p. administered on days −1, 7, 10, and 14. The numbers of lung nodules were counted on day 21. (C) 200 μg/injection 1V270 was i.p. administered on days −1 or 0 followed by days 7, 10, and 14 where indicated. The numbers of lung nodules were counted on day 21. […] Intracellular granzyme B (D) and IFNγ (E) were analyzed by flow cytometry. […] The percent specific killing was calculated. Data were analyzed by two-way ANOVA using a Bonferroni post hoc test comparing treatment groups against vehicle group. *P<0.05. […]
Tumor-specific cytotoxicity was examined using 4T1 cells as target cells and BALB/3T3 cells as irrelevant cells. […] The frequencies of 4T1 (CFSE high) and BALB/3T3 (CFSE low) cells were determined by flow cytometry, and the percent specific killing was calculated. […]
To examine the role of CD8^+ T cells after systemic 1V270 treatment, mediastinal lymph node (mLN) cells, splenocytes, and lung tissues were analyzed in the IV metastasis model on day 21 (FIGS. 23D-2G). Activation of CD8^+ T cells was assessed by intracellular staining for granzyme B and interferon γ (IFNγ). […]

4T1 cells [2] = assay: Spontaneous lung metastasis model, orthotopic 4T1 breast cancer; assay type: in vivo, BALB/c mice
Procedure: FIGS. 22A-22C. Systemic administration of 1V270 inhibits lung metastasis in the 4T1 murine syngeneic breast cancer model in a CD8^+ T cell dependent manner. (A) Protocol of spontaneous metastasis model. 4T1 cells (5×10^5) were inoculated in both 4th mammary pads of Balb/c mice (n=13/group) 1V270 (20, 80, 04 200 μg/injection) was administered on days 7, 10, 14, 17, 21 and 24. (B) The numbers of lung nodules were counted by staining with India ink after harvesting lungs on day 27. (C) The mice (n=6-15/group) were orthotopically implanted with 4T1 cells and i.p. treated with 1V270 (20 μg/injection) as shown in FIG. 1A. CD8^+ cells were depleted by administration of anti-CD8 or isotype mAbs on days 5, 8, 11, 16, 19, and 23. The numbers of lung nodules were counted on day 27. Each dot indicates an individual mouse and horizontal and vertical bars indicate means±SEM. Data shown are pooled from 2 independent experiments. *P<0.05, **P<0.01 by Kruskal-Wallis test with Dunn's post hoc test comparing treatment groups against vehicle group. n.s; statistically not significant.
FIGS. 28A-28C. […] Tumor growth was measured with a caliper and calculated using the formula: volume (mm^3)=(width)^2×length/2. […]
In the spontaneous metastasis model, othotopically implanted tumor cells spontaneously form lung metastases within three weeks after implantation. […] Tumor length and width were recorded, and tumor volumes were calculated using the formula: volume (mm^3)=(width)^2×length/2. […] On day 21, mice were euthanized and tumor nodules in lungs were counted as described above. […] Tumor length and width were recorded, and tumor volumes were calculated similar with
4T1 cells (5×10^5) were inoculated into the 4th mammary pads on day 0, and 1V270 (20, 80, or 200 μg/injection) was injected intraperitoneally (i.p.) twice a week for three weeks, starting on day 7 (FIG. 22A). Both the primary tumor volumes and the numbers of lung metastases were evaluated on day 27. […]

CCCCCCCCC=CCCCCCCCC(=O)OCC(COP(=O)(O)OCCNC(=O)c1ccc(Cn2c(=O)[nH]c3c(N)nc(OCCOC)nc32)cc1)OC(=O)CCCCCCCC=CCCCCCCCC (stereo not shown) [1V270]
tumor-specific cytotoxicity of CD8+ T cells (4T1 cells [1]): significantly higher tumor-specific cytotoxicity
tumor growth at the primary sites of implantation (4T1 cells [2]; 1V270 20, 80 or 200 μg/injection i.p. from day 7): did not retard tumor growth at the primary sites of implantation
number of lung metastases (4T1 cells [2]; 1V270 20, 80 or 200 μg/injection i.p. twice a week for three weeks from day 7, evaluated day 27): decreased the number of lung metastases
numbers of lung nodules after CD8+ cell depletion (4T1 cells [2]; anti-CD8 mAb depletion, 1V270 20 μg/injection i.p.): increased significantly
